Bounds are passed on as bounds.

On the series, the source says:
In one or more embodiments, the foamable composition includes a potent solvent, in addition to or in place of one of the hydrophobic solvents, polar solvents or emollients of the composition. A potent solvent is a solvent other than mineral oil that solubilizes a specific active agent substantially better than a hydrocarbon solvent such as mineral oil or petrolatum.
Turning to `CCCCC(=O)O[C@]1(C(=O)CO)[C@@H](C)C[C@H]2[C@@H]3CCC4=CC(=O)C=C[C@]4(C)[C@@]3(F)[C@@H](O)C[C@@]21C` [Betamethasone valerate], the Solubility in glycofurol result is reported as “more than 1%” and the “Solubility in mineral oil” value was < 0.01%.
Regarding `CC(=O)N1CCN(c2ccc(OCC3COC(Cn4ccnc4)(c4ccc(Cl)cc4Cl)O3)cc2)CC1` (stereo not drawn) [Ketoconazole], the “Solubility in dimethyl isosorbide” value is on record as “more than 1%”, the Solubility in glycofurol result is on record as “more than 1%”, the “Solubility in mineral oil” value is < 0.01% and the “Solubility in propylene glycol” value is “more than 1%”.
As for `CC(=O)[C@H]1CC[C@H]2[C@@H]3CCC4=CC(=O)CC[C@]4(C)[C@H]3CC[C@]12C` [Progesterone], the “Solubility in mineral oil” value is given as < 0.001%.
With `CCCC(=O)O[C@]1(C(=O)CO)CC[C@H]2[C@@H]3CCC4=CC(=O)CC[C@]4(C)[C@H]3[C@@H](O)C[C@@]21C` [Hydrocortisone butyrate], the Solubility in glycofurol result is listed as “more than 1%” and the “Solubility in mineral oil” value was < 0.01%.
With `Cc1ncc([N+](=O)[O-])n1CCO` [Metronidazole], the “Solubility in dimethyl isosorbide” value is reported as “more than 1%” and the “Solubility in mineral oil” value was < 0.01%.
Consider `CC(C)Cn1cnc2c(N)nc3ccccc3c21` [imiquimod, 4-Amino-1-isobutyl-1H-imidazo[4,5-c] quinoline], for which the “Solubility in isostearic acid” value was “soluble”.
Regarding `Cc1cnc(NC(=O)C2=C(O)c3ccccc3S(=O)(=O)N2C)s1` [Meloxicam], the “Solubility in mineral oil” value is listed as < 0.001%.
For the compound `C/C(=C\C(=O)OCCCCCCCCC(=O)O)C[C@@H]1OC[C@H](C[C@@H]2O[C@H]2[C@@H](C)[C@H](C)O)[C@@H](O)[C@H]1O` [Mupirocin], the “Solubility in dimethyl isosorbide” value is “more than 1%”, the Solubility in glycofurol result was “more than 1%”, the “Solubility in mineral oil” value was < 0.01% and the “Solubility in polyethylene glycol 400 (PEG 400)” value is recorded as “more than 1%”. The “Solubility in propylene glycol” value was “more than 1%”.

For the origin of these results see patent US11103454B2, “Wax foamable vehicle and pharmaceutical compositions thereof” (VYNE THERAPEUTICS INC., priority 2007, dated 2021).
